Reference: article PMC10576086, “Characterization of the horse chestnut genome reveals the evolution of aescin and aesculin biosynthesis” (Nature Communications, 2023)

Key:
AcUGT92G7 = system: T1, AcUGT92G7; experiment: HPLC glucosyltransferase kinetics; format: biochemical, Aesculus chinensis; conditions: 1 mM UDP-glucose, Tris-HCl pH 7.0, 37 °C, 0-400 μM acceptor
T1 construct: gene UGT92G7; full-length, MBP or His fusion (pMAL-c2x or pET28a), E. coli, purified

AcUGT84A56 = system: T2, AcUGT84A56; experiment: HPLC glucosyltransferase kinetics; format: biochemical, Aesculus chinensis; conditions: 1 mM UDP-glucose, Tris-HCl pH 7.0, 37 °C, 0-400 μM acceptor
T2 construct: gene UGT84A56; full-length, MBP or His fusion (pMAL-c2x or pET28a), E. coli, purified

Km (AcUGT92G7): 49 µM | Km (AcUGT84A56): 177 µM
Structure (SMILES): O=c1ccc2cc(O)c(O)cc2o1 [compound 4, esculetin]
